According to US20250163176A1, “MONOCLONAL ANTIBODY AGAINST TROP2 AND USE THEREOF” (INSTITUTE OF MEDICAL BIOTECHNOLOGY, CHINESE ACADEMY OF …, priority 2022, published 2025):

T1: Trop2 antigen (human, UniProt P09758 27-274, limits assumed)
T1 construct: also called human trophoblast cell surface antigen 2; tumor-associated calcium signal transducer 2
T1 sequence (looked up): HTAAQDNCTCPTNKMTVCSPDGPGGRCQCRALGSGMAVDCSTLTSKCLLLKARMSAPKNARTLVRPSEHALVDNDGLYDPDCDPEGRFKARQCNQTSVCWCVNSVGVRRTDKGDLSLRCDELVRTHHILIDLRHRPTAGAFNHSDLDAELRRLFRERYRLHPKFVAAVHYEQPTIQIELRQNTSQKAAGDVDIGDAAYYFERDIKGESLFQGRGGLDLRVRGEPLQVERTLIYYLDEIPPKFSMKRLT

B1: anti-Trop2 monoclonal antibody IMB1636 (antibody, V domains shown)
VH: QVQLQQSGAELVRPGTSVKISCKASGYTFTNYWLGWVKQRPGHGLEWIGNIFPGGGYTNYNEKFKGKAILTADTSSSTAYMQLSSLTSEDSGVYFCAREGVMDYWGQGTTLTVSS
VL: DILLTQSPAILSVSPGERVSFSCRASQNIGTSIHWYQQRTNGFPRLLIKYASESISGIPSRFSGSGSGTDFTLSINSVESEDIADYYCQQSYSWPFTFGSGTKLEIK
notes: also called mouse-derived anti-Trop2 monoclonal antibody; anti-Trop2 antibody

What was measured:
small cell lung cancer = details: patients, phase II; cited from earlier work
[1] = system: recurrent and refractory triple-negative breast cancer; details: patients; cited from earlier work
Trop2 antigen [2] = target: T1, Trop2 antigen; test: Biacore SPR; antibody amine-coupled to CM5 chip, Trop2 antigen as analyte
Experimental: Amino of an anti-Trop2 antibody was coupled to a CM5 chip, with pH of 5.0, an antibody concentration of 10 μg/mL, sample injection time of 60 s, and flow rate of 10 μL/min, and a coupling amount of 378.6 RU. […] (FIG. 6)

Trop2 antigen [3] = target: T1, Trop2 antigen; test: indirect ELISA on plates coated with Trop2 antigen at 0.1, 0.2 and 0.4 µg/mL; Ka calculated from the antibody concentrations at half-maximal binding
Experimental: (§1) A Trop2 antigen was diluted to three dilutions (0.1 μg/mL, 0.2 μg/mL, and 0.4 μg/mL) and coated onto ELISA plates. […] An antigen-antibody reaction curve was determined using an indirect ELISA. […] The unit of Ka is M⁻¹. In this formula, [Ab] represents the antibody concentration corresponding to A=½Amax when the antigen concentration is [Ag]; [Ab]t represents the antibody concentration corresponding to A=½Amax when the antigen concentration is [Ag]t; [Ag] and [Ag]t represent the antigen concentrations; and n is the dilution factor between [Ag] and [Ag]t. (FIG. 7)

Trop2 antigen [4] = target: T1, Trop2 antigen; test: indirect ELISA, Trop2 antigen coated at 0.1 µg/ml
Experimental: as §1

Trop2 antigen [5] = target: T1, Trop2 antigen; test: indirect ELISA, Trop2 antigen coated at 0.2 µg/ml
Experimental: as §1

Trop2 antigen [6] = target: T1, Trop2 antigen; test: indirect ELISA, Trop2 antigen coated at 0.4 µg/ml
Experimental: as §1

| Molecule | clinical effective rate (small cell lung cancer) [%] | median overall survival time (small cell lung cancer) [months] | median progression-free survival time (small cell lung cancer) [months] | median remission time (small cell lung cancer) [months] | objective remission rate (small cell lung cancer) [%] | average time from administration to taking effect [1] [months] | clinical effective rate [1] [%] | objective remission rate [1] [%] | overall survival time [1] [months] | progression-free survival time [1] [months] | Kd (Trop2 antigen [2]) [nM] | koff (Trop2 antigen [2]) [s⁻¹] | kon (Trop2 antigen [2]) [M⁻¹ s⁻¹] | Ka (Trop2 antigen [3]) [M⁻¹] | EC50 (read off the curve) (Trop2 antigen [4]) [ng/mL] | EC50 (read off the curve) (Trop2 antigen [5]) [ng/mL] | EC50 (read off the curve) (Trop2 antigen [6]) [ng/mL] |
| --- | --- | --- | --- | --- | --- | --- | --- | --- | --- | --- | --- | --- | --- | --- | --- | --- | --- |
| IMMU-132 | 43 | 9.5 | 5.2 | 6 | 19 | 1.9 | 46 | 30 | 16.6 | 6 |  |  |  |  |  |  |  |
| B1 |  |  |  |  |  |  |  |  |  |  | 0.484 | 0.00073 | 1.51e+06 | 3.9e+10 | ~5 | ~5 | ~5 |
